Measurements: patent publication US9284272B2, “Inhibitors of histone methyltransferase G9a” (AbbVie Inc., priority 2014, dated 2016)

tested on: MV4;11 cells; assay: Differentiation, proliferation, viability and cell cycle of MV4;11 cells, 14 days; type: cell-based, human; details: MV4;11 cells, 0-3 μM
Source text: MV4;11 cells are a human acute myelocytic leukemia (AML) cell line derived from a human with leukemia.

Compound	cell cycle analysis (PI staining)	expression of marker CD11b by flow cytometry (differentiation)
CC1=C(/C=C/C(C)=C/C=C/C(C)=C/C(=O)O)C(C)(C)CCC1 [ATRA, all trans retinoic acid, reference compound]	more cells were observed to be in the subG1/G0 phase	more cells in the population expressed the marker CD11b

same assay, conditions: MV4;11 cells, compared with Example 7

Compound	effect on cell viability
CC1=C(/C=C/C(C)=C/C=C/C(C)=C/C(=O)O)C(C)(C)CCC1 [ATRA, all trans retinoic acid, reference compound]	less of an effect on cell viability

same assay, conditions: MV4;11 cells, increasing concentration

Compound	growth inhibition and expression of CD11b
CC1=C(/C=C/C(C)=C/C=C/C(C)=C/C(=O)O)C(C)(C)CCC1 [ATRA, all trans retinoic acid, reference compound]	lead to growth inhibition and expression of CD11b

target: T1, G9a (Homo sapiens, UniProt Q96KQ7); assay: Inhibition of G9a, AlphaLISA assay; type: biochemical; details: not given
T1 sequence (Q96KQ7 1-1210): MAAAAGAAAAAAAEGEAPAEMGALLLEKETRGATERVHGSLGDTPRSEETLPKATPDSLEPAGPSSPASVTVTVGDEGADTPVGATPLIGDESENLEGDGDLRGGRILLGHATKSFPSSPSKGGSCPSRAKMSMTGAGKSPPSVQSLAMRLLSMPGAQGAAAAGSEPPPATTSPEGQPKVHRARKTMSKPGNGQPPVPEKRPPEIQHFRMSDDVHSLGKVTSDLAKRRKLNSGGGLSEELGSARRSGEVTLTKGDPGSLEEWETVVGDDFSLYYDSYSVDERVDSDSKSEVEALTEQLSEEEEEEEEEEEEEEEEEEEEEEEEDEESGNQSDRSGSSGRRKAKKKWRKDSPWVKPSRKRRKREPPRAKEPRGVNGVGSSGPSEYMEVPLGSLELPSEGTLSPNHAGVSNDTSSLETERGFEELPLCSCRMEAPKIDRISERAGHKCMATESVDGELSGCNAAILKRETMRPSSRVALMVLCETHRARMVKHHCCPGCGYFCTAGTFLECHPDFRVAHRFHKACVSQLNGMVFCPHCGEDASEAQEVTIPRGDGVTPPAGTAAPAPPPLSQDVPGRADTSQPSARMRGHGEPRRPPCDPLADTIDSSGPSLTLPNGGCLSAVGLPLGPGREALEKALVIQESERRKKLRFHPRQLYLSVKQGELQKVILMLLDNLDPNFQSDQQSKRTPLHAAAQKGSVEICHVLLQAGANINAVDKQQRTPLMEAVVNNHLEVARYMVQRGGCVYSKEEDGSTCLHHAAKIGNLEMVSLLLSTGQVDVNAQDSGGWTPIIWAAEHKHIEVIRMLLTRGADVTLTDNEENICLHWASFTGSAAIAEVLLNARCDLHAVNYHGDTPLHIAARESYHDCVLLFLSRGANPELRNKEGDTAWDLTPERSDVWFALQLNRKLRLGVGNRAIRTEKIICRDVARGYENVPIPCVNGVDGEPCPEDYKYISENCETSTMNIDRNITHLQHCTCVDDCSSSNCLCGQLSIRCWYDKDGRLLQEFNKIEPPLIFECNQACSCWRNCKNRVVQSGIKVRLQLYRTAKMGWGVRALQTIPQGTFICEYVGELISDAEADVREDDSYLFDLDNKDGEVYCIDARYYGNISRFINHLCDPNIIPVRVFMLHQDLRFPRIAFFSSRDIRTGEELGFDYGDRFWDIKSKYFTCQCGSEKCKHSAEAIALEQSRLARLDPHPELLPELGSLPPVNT
Protocol: The G9a assay was conducted in an Alphascreen format to detect methyl modification of a histone H3 peptide by the histone methyl transferase activity of the G9a enzyme.
For the assay, the following buffer was used to set up reactions: 50 mM Tris-HCl pH 7.5, 50 mM NaCl, 1 mM DTT, 0.01% Triton X-100, and 0.005% BSA, with the DTT and BSA added fresh prior to starting the reactions.
IC50 values were calculated by fitting the inhibition percent to the concentration of inhibitor [I] in the assay in equation 1 below, to solve for the IC50.

Compound	IC50 [nM]
COc1cc2c(cc1OCCCC1CCCC1)N=C(N)C2(C)C [Example 17, 6-(3-cyclopentylpropoxy)-5-methoxy-3,3-dimethyl-3H-indol-2-amine]	12900
COc1cc2c(cc1OCCCn1ccnc1)N=C(N)C21CCC1 [Example 11, 6′-(3-(1H-imidazol-1-yl)propoxy)-5′-methoxyspiro[cyclobutane-1,3′-indol]-2′-amine]	754
COc1cc2c(cc1OCCCN1CC[C@H](F)C1)N=C(N)C21CCC1 [Example 12, (S)-6′-(3-(3-fluoropyrrolidin-1-yl)propoxy)-5′-methoxyspiro[cyclobutane-1,3′-indol]-2′-amine]	3.7
COc1cc2c(cc1OC)C1(CCCCC1)C(N)=N2 [Example 2, 5′,6′-dimethoxyspiro[cyclohexane-1,3′-indol]-2′-amine]	3540
COc1cc2c(cc1OCC1CCCN1C)N=C(N)C21CCC1 (stereo not shown) [Example 9, 5′-methoxy-6′-((1-methylpyrrolidin-2-yl)methoxy)spiro[cyclobutane-1,3′-indol]-2′-amine]	5
COc1cc2c(cc1OCCCN1CCCC1)N=C(N)C2(C)C [Example 16, 5-methoxy-3,3-dimethyl-6-(3-(pyrrolidin-1-yl)propoxy)-3H-indol-2-amine]	0.9
COc1cc2c(cc1OCCCN1CC(F)(F)C1)N=C(N)C21CCC1 [Example 14, 6′-(3-(3,3-difluoroazetidin-1-yl)propoxy)-5′-methoxyspiro[cyclobutane-1,3′-indol]-2′-amine]	1340
COc1cc2c(cc1OC)C1(CCCC1)C(N)=N2 [Example 4, 5′,6′-dimethoxyspiro[cyclopentane-1,3′-indol]-2′-amine]	2460
COc1cc2c(cc1OCCC1CCCN1C)N=C(N)C21CCC1 (stereo not shown) [Example 10, 5′-methoxy-6′-(2-(1-methylpyrrolidin-2-yl)ethoxy)spiro[cyclobutane-1,3′-indol]-2′-amine]	150

Continued, values first:

IC50 [nM]	Compound
1	COc1cc2c(cc1OCC1CCN(C)C1)N=C(N)C21CCC1 (stereo not shown) [Example 8, 5′-methoxy-6′-((1-methylpyrrolidin-3-yl)methoxy)spiro[cyclobutane-1,3′-indol]-2′-amine]
153	COc1cc2c(cc1OC)C1(CCC1)C(N)=N2 [Example 3, 5′,6′-dimethoxyspiro[cyclobutane-1,3′-indol]-2′-amine]
18200	COc1ccc2c(c1)C1(CCC1)C(N)=N2 [Example 5, 5′-methoxyspiro[cyclobutane-1,3′-indol]-2′-amine]
4.8	COc1cc2c(cc1OCCCN1CC(F)C1)N=C(N)C21CCC1 [Example 13, 6′-(3-(3-fluoroazetidin-1-yl)propoxy)-5′-methoxyspiro[cyclobutane-1,3′-indol]-2′-amine]
14400	COc1cc2c(cc1OC)N=C(N)C2 [Example 6, 5,6-dimethoxy-3H-indol-2-amine]
18	COc1cc2c(cc1OCCCN1CC[C@@H](F)C1)N=C(N)C21CCC1 [Example 15, (R)-6′-(3-(3-fluoropyrrolidin-1-yl)propoxy)-5′-methoxyspiro[cyclobutane-1,3′-indol]-2′-amine]
